# Measurements published in patent publication US4808586A, “Substituted benzimidazoles and benzothidiazoles having anti-asthmatic and/or anti-inflammatory activities” (American Cyanamid Company, priority 1987, dated 1989).
# Where two headings read alike, the source gives them in different places.
# How the values were obtained:
# [1] = tested on: Immunologically Stimulated Human Basophils; assay: Inhibition of histamine release from immunologically stimulated human basophils; assay type: cell-based; conditions: 1 h; human basophils challenged with anti-IgE or antigen, 60 minutes at 37° C.; linear regression; active if ED50 ≤48 μM; read-out: ED50 (concentration which causes a 50% inhibition of histamine release)
# Procedure: The novel compounds of this invention have been tested by the procedure of Lichtenstein, L. M. and Osler, A. G., J. Exp. Med., 120, 507-530 (1964), which evaluates the ability of compounds to inhibit mediator (histamine) release from immunologically stimulated human basophils.
# Dissolve 140.3 g of sodium chloride, 7.45 g of potassium chloride and 74.5 g of Trizma-Tris Pre-Set, Reagent Grade, pH 7.6, at 25° C. (Sigma Chemical Co.) in sufficient water to give a final volume of 2 liters.
# (Sigma Chemical Co.) (30 mg/ml)
# Made to 0.75M and 0.5M respectively, with calcium chloride dihydrate and magnesium chloride hexahydrate.
# A 10 ml portion of 10X Tris Buffer and 1.0 ml of human albumin are diluted to 100 ml with water.
# A 10 ml portion of 10X Tris Buffer, 1.0 ml of human albumin, 0.8 ml of calcium stock and 0.2 ml of magnesium stock are diluted to 100 ml with water.
# Behring Diagnostics (Generally used at 10 μg protein/ml final concentration).
# Strength 1:100 (w:v) allergenic extract, Hollister-Stier Labs. Generally this is diluted 1:1000 to 1:10,000 (considering the vial as stock).
# Intradermal solutions or intramuscular preparations for hyposensitization, Hollister-Stier Labs. The final concentration used is on the order of 1 PNU/ml.
# Eighty milliliters of blood is withdrawn from subjects with known histamine release to anti-Ige, rageweed antigen or other specific alergen, using four 20 ml heparainized tubes. This 80 ml of blood is mixed with 20 ml of saline containing 0.6 g of dextrose and 1.2 g of dextran. The blood is allowed to sediment at room temperature in two 50 ml polycarbonate centrifuge tubes until a sharp interface develops between the red cells and plasma (60-90 minutes). The plasma (top) layer from each tube is with-drawn by pipet and transferred to respective 50 ml polycarbonate tubes. The plasma is centrifuged for 8 minutes at 100×G at […]. The supernatant is carefully poured off as completely as possible and the cell button is resuspended in 2-3 ml of Tris-A buffer using a silconized Pasteur pipet. The resuspension is accomplished by drawing the liquid gently in an out of the pipet, with the tip below the liquid, until and even suspension of cells is obtained. Sufficient Tris-A buffer is then added to bring the volume in the tube to about 45 ml and the tube is centrifuged at 110×G for 8 minutes at 4° C. The supernatant is poured off and the cell button is resuspended and centrifuged as described above. The supernatant is poured off and the cell button suspended in 2-3 ml of Tris-ACM buffer to make the final volume sufficient to allow addition to the reaction tubes.
# Reaction tubes containing anti-IgE or antigens, either alone or with test compound in a total volume of 0.2 ml are prepared and placed in a 37° C. bath. […]
# [2] = target: T1, Neutrophil Lipoxygenase (Cavia porcellus, UniProt A0A286X958); assay: Inhibition of neutrophil lipoxygenase (release and biosynthesis of LTB4 and 5-HETE) in guinea pig peritoneal neutrophils; assay type: cell-based; conditions: 10 μg/ml, 100 μM arachidonic acid and 20 μM A23187, the lower the percentage, the more active
# T1 construct: endogenous in cells; host or cells: guinea pig peritoneal neutrophils
# T1 sequence (A0A286X958 1-674): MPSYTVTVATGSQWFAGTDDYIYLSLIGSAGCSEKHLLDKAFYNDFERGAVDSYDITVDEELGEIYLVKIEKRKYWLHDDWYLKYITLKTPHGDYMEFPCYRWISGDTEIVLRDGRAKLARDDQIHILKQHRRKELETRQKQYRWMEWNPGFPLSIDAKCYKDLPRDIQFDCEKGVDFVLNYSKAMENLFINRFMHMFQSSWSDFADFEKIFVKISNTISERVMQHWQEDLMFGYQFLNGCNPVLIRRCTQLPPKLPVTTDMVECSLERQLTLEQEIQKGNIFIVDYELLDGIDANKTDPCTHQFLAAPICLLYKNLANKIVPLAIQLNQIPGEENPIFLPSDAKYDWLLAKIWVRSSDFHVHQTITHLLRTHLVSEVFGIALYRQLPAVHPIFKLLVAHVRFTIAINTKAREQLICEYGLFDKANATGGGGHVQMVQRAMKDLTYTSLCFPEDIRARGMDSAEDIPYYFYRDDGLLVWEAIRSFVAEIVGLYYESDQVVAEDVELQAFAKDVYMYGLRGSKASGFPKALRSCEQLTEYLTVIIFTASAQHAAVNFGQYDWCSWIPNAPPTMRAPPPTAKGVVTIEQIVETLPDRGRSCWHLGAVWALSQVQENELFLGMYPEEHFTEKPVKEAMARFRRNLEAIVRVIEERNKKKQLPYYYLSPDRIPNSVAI
# Procedure: The ability of these compounds to inhibit lipoxygenase activity in terms of the suppression of the release and biosynthesis of leukotriene B4 (LTB4) and 5-hydroxyeicosatetraenoic acid (5-HETE) was measured as follows.
# In this assay 3×10^7 peritoneal neutrophils derived from guinea pigs were incubated at 37° C. in Dulbeccos buffer containing 50 mM tris buffer (pH 7.4). Five minutes before the addition of 100 μM arachidonic acid and 20 μM calcium ionophore (A23187), control vehicle or the test compounds were added to the neutrophils at a concentration of 10 μg/ml.
# Three minutes after the addition of arachidonic acid and calcium ionophore the total lipid was partitioned into chloroform after adjusting the pH to 3 with citric acid and the addition of equal parts of methanol and chloro-form.
# The 5-HETE and LTB4 were resolved by HPLC using a 5 μM, 4×25 cm octadecyl silica solumn (IBM Instruments) with 70-80% methanol in water adjusted to pH 3.0 with acetic acid. As the mobile phase was pumped at 1.0 ml/minute, LTB4 and 5-HETE were detected by absorbance at 270 and 236 nm, respectively.
# LTB4 and 5-HETE were quantitated by comparison with the control and results were expressed as a percent of control.
IC50 [1],"remaining activity at 10 µg/mL ([2]; read-out: 5-HETE, % of Control)","remaining activity at 10 µg/mL ([2]; read-out: LTB4, % of Control)",Compound
9.7 µM,–,–,"Oc1ccc(O)c2[nH]c(-c3ccc(Cl)cc3)nc12 [2-(4-Chlorophenyl)-1H-benzimidazole-4,7-diol]"
6.8 µM,–,–,"O=C1C=CC(=O)c2[nH]c(-c3ccc(Cl)cc3)nc21 [2-(4-Chlorophenyl)-1H-benzimidazole-4,7-dione]"
–,77%,87%,"COc1ccc(OC)c2[nH]c(-c3ccc(Cl)cc3)nc12 [2-(4-Chlorophenyl)-4,7-dimethoxy-1H-benzimidazole]"
–,78.2%,8%,"COc1ccc(OC)c2[nH]c(-c3ccccc3)nc12 [4,7-Dimethoxy-2-phenyl-1H-benzimidazole]"

# Second part, the compound before the results:
Compound,IC50 [1],"remaining activity at 10 µg/mL ([2]; read-out: 5-HETE, % of Control)","remaining activity at 10 µg/mL ([2]; read-out: LTB4, % of Control)"
"Oc1ccc(O)c2[nH]c(-c3ccccc3)nc12 [2-Phenyl-1 --H--benzimidazole-4,7-diol, 2-Phenyl-1H-benzimidazole-4,7-diol]",–,32.1%,33.9%
"O=CN1CCN(C2=C(Cl)C(=O)c3nsnc3C2=O)CC1 [4-(6-Chloro-4,7-dihydro-4,7-dioxo-2,1,3-benzothiadiazol-5-yl)-1-piperazinecarboxaldehyde]",–,64%,90.8%
"CCOC(=O)N1CCN(C2=C(Cl)C(=O)c3nsnc3C2=O)CC1 [4-(6-Chloro-4,7-dihydro-4,7-dioxo-2,1,3-benzothiadiazol-5-yl)-1-piperazinecarboxylic acid, ethyl ester]",1 µM,40.5%,39.3%
"O=C1C(Cl)=C(N2CCN(c3cccc(C(F)(F)F)c3)CC2)C(=O)c2nsnc21 [5-Chloro-6-6[4-[3-(trifluoromethyl)phenyl]-1-piperazinyl]-2,1,3-benzothiadiazole-4,7-dione]",9.1 µM,15.2%,14.6%
"O=C1C(Cl)=C(N2CCN(c3nc4ccccc4o3)CC2)C(=O)c2nsnc21 [5-[4-(2-Benzoxazolyl)-1-piperazinyl]-6-chloro-2,1,3-benzothiadiazole-4,7-dione]",–,20.8%,25.8%
